Laboratory results reported in paper PMC7865387, “Artemether-Loaded Zein Nanoparticles: An Innovative Intravenous Dosage Form for the Management of Severe Malaria” (International Journal of Molecular Sciences, 2021).

How the values were obtained:
[1] = In vitro release study (sample and separate method); format: physicochemical; details: PBS pH 7.4, 37 °C, sink conditions; n = 3
Experimental: The dissolution profile of artemether-loaded zein nanoparticles was studied by the “sample and separate” method. In brief, artemether-loaded zein nanoparticle powders containing 6 mg artemether were put in 100 mL phosphate buffered saline (PBS) of pH 7.4. The study was performed under sink conditions at 37 ± 0.5 °C with 150 rpm stirring. The beaker was covered with parafilm to minimize water loss via evaporation. In total, 1 mL samples were withdrawn at selected time points (1/12, 1/6, 1/4, 1/2, 1, 2, 3, 4, 5, 6, 24 h). Samples were centrifuged at 10,800 rpm for 30 min and the supernatants were analyzed by HPLC in the same way as drug content. Then, 1 mL PBS at 37 °C was added after each sampling to maintain sink condition. The experiment was repeated 3 times to ensure consistency. Raw artemether was used as control. Mean values and standard deviations were subsequently calculated.

[2] = system: red blood cells (RBCs); assay: In vitro hemolytic test; format: cell-based; details: artemether 2 mg/mL in 5% DMSO; 4% v/v rat RBCs, 37 °C, 1 h; positive control Triton X 100
Experimental: This test was performed to examine the hemolytic potential of artemether-loaded zein nanoparticles and the formulation ingredients on red blood cells (RBCs). Freshly collected rat blood was centrifuged at 1500× g for 10 min at 4 °C. The plasma was collected for other purpose. The remaining RBCs were washed with PBS and then centrifuged at 1500× g at 4 °C for 5 min. After two repeats of such procedures, the RBCs were diluted 25 times with PBS to make a 4% v/v RBCs dispersion. Such RBCs were kept at 4 °C and used within 24 h. The impact of artemether-loaded zein nanoparticles containing 2 mg/mL artemether, raw artemether in 5% v/v aqueous DMSO solution (2 mg/mL), 5% v/v aqueous DMSO solution, sodium caseinate (7.5 mg/mL) solution, artemether (2 mg/mL) together with sodium caseinate (7.5 mg/mL) solution was assessed. PBS and 1% v/v Triton-X 100 solution were assessed by adding 1 mL of the test solutions each to 1 mL of the 4% v/v RBCs dispersion. Each sample was incubated with the RBCs at 37 °C for 1 h and then centrifuged at 1500× g for 10 min. The absorbance of the supernatant was taken at 550 nm with U-2900 UV spectrophotometer (Hitachi, Japan). Percentage haemolysis was calculated as follows:(3) Hemolysis (%)=AbsorbanceTest group−AbsorbancePBS/AbsorbanceTriton−X100−AbsorbancePBS×100%

[3] = parameters: method as in PMID 21914160; details: intravenous artesunate, clinical practice; cited from earlier work
[4] = cited from earlier work

## CO[C@H]1O[C@@H]2O[C@@]3(C)CC[C@H]4[C@H](C)CC[C@@H]([C@H]1C)[C@@]24OO3 [artemether]
[1]
  artemether released / dissolved within 5 h: almost all
[2]
  hemolytic effect (in words): destroyed RBCs as much as the positive control

## C[C@H]1[C@H](OC(=O)CCC(=O)O)O[C@@H]2O[C@@]3(C)CC[C@H]4[C@H](C)CC[C@@H]1[C@@]24OO3 [artesunate]
[3]
  half-life: less than 1 h

## Zein
[4]
  isoelectric point (pI): 6.2

## sodium caseinate
[4]
  isoelectric point (pI): 4.5
